Our source for the MIC, Ki and MICs values is patent US20090005369A1, “Oxazolidinone Compounds and Compositions and Methods Related Thereto” (priority 2004, published 2009).

For assay [1], the system named is S. aureus ATCC 25923 MS 319. Nature of the assay: MIC by standard microdilution (NCCLS M7-A5). In kind it is cell-based. As to conditions: Staphylococcus aureus, ATCC25923, read-out: In vitro activities against bacteria, MIC.
Assay [2] deals with S. aureus ATCC 43300 MR 214. Nature of the assay: MIC by standard microdilution (NCCLS M7-A5). It is filed as cell-based. As to conditions: Staphylococcus aureus, ATCC43300, read-out: In vitro activities against bacteria, MIC. A general note: Dilution methods test growth across graded concentrations, often in twofold steps.
Assay [3] deals with S. pneumoniae ATCC 49619 PR 215. Kind of assay: MIC by standard microdilution (NCCLS M7-A5). In kind it is cell-based. As to conditions: Streptococcus pneumoniae, ATCC49619, read-out: In vitro activities against bacteria, MIC.
For assay [4], the system named is E. faecalis ATCC 29212 53. Kind of assay: MIC by standard microdilution (NCCLS M7-A5). In kind it is cell-based. As to conditions: Enterococcus faecalis, ATCC29212, read-out: In vitro activities against bacteria, MIC.
For assay [5], the system named is E. faecalis ATCC 51575 MDR 311. Kind of assay: MIC by standard microdilution (NCCLS M7-A5). In kind it is cell-based. To be noted: Enterococcus faecalis, ATCC51575, read-out: In vitro activities against bacteria, MIC.
Assay [6] relates to E. faecium ATCC 51559 MDR 312. Nature of the assay: MIC by standard microdilution (NCCLS M7-A5). To be noted: Enterococcus faecium, ATCC51559, read-out: In vitro activities against bacteria, MIC. It is filed as cell-based.
In assay [7] the test system is Moraxella catarrhalis HCl-78 259/339. Nature of the assay: MIC by standard microdilution (NCCLS M7-A5). It is filed as cell-based. As to conditions: HCL78259/339, read-out: In vitro activities against bacteria, MIC.
A further assay deals with T1, human MAO-A (Homo sapiens, UniProt P21397).
T1 construct: purchased Gentest, BD, USA; host or cells: SF9 insect cells (membranes)
T1 sequence (P21397 1-527): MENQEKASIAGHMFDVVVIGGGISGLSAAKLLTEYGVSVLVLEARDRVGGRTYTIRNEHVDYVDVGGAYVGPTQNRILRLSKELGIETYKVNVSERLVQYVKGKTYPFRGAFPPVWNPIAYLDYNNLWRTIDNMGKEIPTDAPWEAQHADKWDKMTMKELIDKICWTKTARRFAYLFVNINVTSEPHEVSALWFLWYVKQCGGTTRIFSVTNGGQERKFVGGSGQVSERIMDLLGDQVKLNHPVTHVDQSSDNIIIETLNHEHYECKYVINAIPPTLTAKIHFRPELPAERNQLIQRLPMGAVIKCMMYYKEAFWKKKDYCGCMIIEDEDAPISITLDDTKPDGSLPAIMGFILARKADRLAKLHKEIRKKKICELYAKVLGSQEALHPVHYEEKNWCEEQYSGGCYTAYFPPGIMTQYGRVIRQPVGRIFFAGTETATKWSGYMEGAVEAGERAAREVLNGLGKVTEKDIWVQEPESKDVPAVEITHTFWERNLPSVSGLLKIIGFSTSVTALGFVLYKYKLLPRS
Kind of assay: In vitro MAO-A enzymatic activity (kynuramine substrate, fluorescence). As to conditions: membranes from SF9 cells, kynuramine 30 μM, read-out: Inhibitory activity of human MAO, Ki. It is filed as biochemical.

The next assay has as its target T2, human MAO-B (Homo sapiens, UniProt P27338).
T2 construct: purchased Gentest, BD, USA; host or cells: SF9 insect cells (membranes)
T2 sequence (P27338 1-520): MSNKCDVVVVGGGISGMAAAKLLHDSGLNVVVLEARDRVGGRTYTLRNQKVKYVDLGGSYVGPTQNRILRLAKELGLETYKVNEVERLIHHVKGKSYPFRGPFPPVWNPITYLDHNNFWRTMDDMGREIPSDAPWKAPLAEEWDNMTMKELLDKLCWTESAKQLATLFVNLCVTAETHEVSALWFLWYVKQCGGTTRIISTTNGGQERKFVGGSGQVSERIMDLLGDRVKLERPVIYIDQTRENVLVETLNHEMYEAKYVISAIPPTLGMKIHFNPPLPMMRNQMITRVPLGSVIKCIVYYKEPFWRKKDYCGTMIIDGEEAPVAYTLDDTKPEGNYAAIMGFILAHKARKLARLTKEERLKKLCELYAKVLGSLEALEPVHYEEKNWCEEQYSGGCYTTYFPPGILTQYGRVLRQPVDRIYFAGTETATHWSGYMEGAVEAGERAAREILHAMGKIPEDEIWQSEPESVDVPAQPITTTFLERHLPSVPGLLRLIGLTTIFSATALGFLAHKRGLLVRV
Nature of the assay: In vitro MAO-B enzymatic activity (kynuramine substrate, fluorescence). To be noted: membranes from SF9 cells, kynuramine 30 μM, read-out: Inhibitory activity of human MAO, Ki. It is filed as biochemical.

Assay [8] has as its system S. epidermidis ATCC 12228 MR 11. Nature of the assay: microbe, parasite or virus in culture. In kind it is cell-based. To be noted: Staphylococcus epidermidis, ATCC12228, read-out: In vitro activities against bacteria, MIC.
Assay [9] has as its system Moxarella, Pasteurella and Bacteroides spp. To be noted: background statement; cited from earlier work.

SMILES strings stand for the structures. Converted amounts (≈) assume the structure as drawn.

As to `O=C1O[C@@H](CNC(=S)c2ccco2)CN1c1ccc(N2CCOCC2)c(F)c1` [Example 2, N-[[(5S)-3-[3-fluoro-4-(4-morpholinyl)-phenyl]-2-oxo-5-oxazolidinyl]methyl]furan-2-yl-thioamide], the MIC in assay [1] is 8 µg/mL (≈ 19.7 µM); in [2], 2 µg/mL (≈ 4.93 µM); in assay [3], 2 µg/mL (≈ 4.93 µM); in [4] it was 2 µg/mL (≈ 4.93 µM); in assay [5] it was 2 µg/mL (≈ 4.93 µM); in [6], 1 µg/mL (≈ 2.47 µM). Further, the MIC in assay [7] worked out at 2 µg/mL (≈ 4.93 µM). Moreover, the Ki on human MAO-A is 170 µM; on human MAO-B, 5.3 µM.
Regarding `O=C1O[C@@H](CNC(=S)c2ccoc2)CN1c1ccc(N2CCOCC2)c(F)c1` [Example 4, N-[[(5S)-3-[3-fluoro-4-(4-morpholinyl)-phenyl]-2-oxo-5-oxazolidinyl]methyl]furan-3-yl-thioamide], the MIC in assay [1], in assay [2], in [8], in assay [3], in assay [4] and in assay [5] was 1 µg/mL (≈ 2.47 µM) each time. For the same molecule, the MIC worked out at 2 µg/mL (≈ 4.93 µM) in assay [6] and 1 µg/mL (≈ 2.47 µM) in assay [7]. For the same molecule, the inhibitory constant (Ki) was at least 250 µM on human MAO-A and 2.4 µM at human MAO-B.
Consider `CC(=S)N1CCN(c2ccc(N3C[C@H](CNC(=S)c4ccoc4)OC3=O)cc2F)CC1` [Example 7, N-[[(5S)-3-[3-fluoro-4-(4′-thioacetyl-4-piperazinyl)-phenyl]-2-oxo-5-oxazolidinyl]methyl]furan-3-yl-thioamide], for which the MIC in assay [1] turned out to be 0.5 µg/mL (≈ 1.08 µM); in [2], 0.5 µg/mL (≈ 1.08 µM); in assay [8], 0.5 µg/mL (≈ 1.08 µM); in assay [3], 0.5 µg/mL (≈ 1.08 µM); in assay [4] it was 0.13 µg/mL (≈ 0.281 µM); in assay [5], 0.06 µg/mL (≈ 0.13 µM). Moreover, the figures for the MIC in [6] and in assay [7] were 0.5 µg/mL (≈ 1.08 µM) and 0.25 µg/mL (≈ 0.54 µM), respectively. Also, the Ki on human MAO-A is at least 200 µM; on human MAO-B, 2.8 µM.
Consider `O=C1O[C@@H](CNC(=S)c2ccco2)CN1c1ccc(N2CCSCC2)c(F)c1` [Example 9, N-[[(5S)-3-[3-fluoro-4-(4-thiomorpholinyl)-phenyl]-2-oxo-5-oxazolidinyl]methyl]furan-2-yl-thioamide], for which the MIC in [1] turned out to be 2 µg/mL (≈ 4.74 µM); in assay [2] it was 4 µg/mL (≈ 9.49 µM); in assay [8], 4 µg/mL (≈ 9.49 µM); in assay [3] it was 4 µg/mL (≈ 9.49 µM); in assay [4], 2 µg/mL (≈ 4.74 µM); in assay [5] it was 2 µg/mL (≈ 4.74 µM). Also, the MIC in assay [6] amounted to 8 µg/mL (≈ 19 µM). Moreover, the Ki was found to be 47.5 µM at human MAO-A and 1 µM at human MAO-B.
With `O=C1O[C@@H](CNC(=S)c2ccoc2)CN1c1ccc(N2CCSCC2)c(F)c1` [Example 11, N-[[(5S)-3-[3-fluoro-4-(4-thiomorpholinyl)-phenyl]-2-oxo-5-oxazolidinyl]methyl]furan-3-yl-thioamide], the MIC is 2 µg/mL (≈ 4.74 µM) in [1]; 1 µg/mL (≈ 2.37 µM) in [2]; 1 µg/mL (≈ 2.37 µM) in assay [8]; 1 µg/mL (≈ 2.37 µM) in assay [3]; 1 µg/mL (≈ 2.37 µM) in [4]; 1 µg/mL (≈ 2.37 µM) in assay [5]. For the same molecule, the MIC in [6] amounted to 1 µg/mL (≈ 2.37 µM); in assay [7], 4 µg/mL (≈ 9.49 µM). Also, the Ki on human MAO-A was at least 250 µM; on human MAO-B, 0.6 µM.
With `CC(=O)NC[C@H]1CN(c2ccc(N3CCOCC3)c(F)c2)C(=O)O1` [Linezolid, N-[[(5S)-3-[3-Fluoro-4-(4-morpholinyl)phenyl]-2-oxo-5-oxazolidinyl]methyl]acetamide, reference compound], the MIC in assay [1] stood at 2 µg/mL (≈ 5.93 µM); in [2] it was 1 µg/mL (≈ 2.96 µM); in [8], 1 µg/mL (≈ 2.96 µM); in [3] it was 2 µg/mL (≈ 5.93 µM); in assay [4] it was 0.5 µg/mL (≈ 1.48 µM); in assay [5], 0.5 µg/mL (≈ 1.48 µM). The MIC was 1 µg/mL (≈ 2.96 µM) in [6] and 2 µg/mL (≈ 5.93 µM) in [7]. The inhibitory constant (Ki) on human MAO-A came out at 7 µM; on human MAO-B, 0.48 µM. For the same molecule, the MICs in assay [9] is 2 to 8 µg/mL.

As usually defined, the Ki is the dissociation constant of the complex between target and ligand, obtained from inhibition or displacement.
